Measured values from patent US20100130408A1, “USE OF MODIFIED CYCLOSPORINS” (priority 2006, published 2010).

How the values were obtained:
HSCs [1] = assay: Type 1 collagen assay (ELISA of culture media); type: cell-based; details: rat HSCs
Method: (§1) A. In vitro Cell culture: HSCs are isolated from the liver of male Wistar rats by sequential in situ perfusion with collagenase and digestion with pronase, followed by centrifugation in a double-layered (17%/11.5%) metrizamide solution (Sigma. Chemical, St. Louis, Mo.), as described in Kato, et al, J. Hepatol (1999) 31:91-99. HSCs are cultured in Dulbecco's modified Eagle's medium (DMEM) with 10% fetal calf serum (FCS). Experiments are performed on cells between the third and fourth serial passages. To measure […] matrix metalloproteinase (MMP-1) and tissue inhibitor of matrix metalloproteinase (TIMP-1), TWNT-4 cells which is a human cell line derived from HSCs as produced according to Shibata, et al, Cell Transplant (2003) 12:499-507 is used for evaluating the effects of Fasudil on MMP-1 and TIMP-1. TWNT-4 cells are cultured in DMEM with 10% FCS as reported previously (Id). NIM811 (Novartis Pharma AG, Basel, Switzerland) is dissolved in DMEM and added to cultures. Cell viability of HSCs is more than 90% under serum-free conditions for 24 h in the presence of 2 μM NIM811.
Type 1 collagen assay: Cultured HSCs are incubated in serum-free medium in the presence or absence of NIM811 for 24 h. Type I collagen is determined in culture media by ELISA as described in Iwamoto, et al, J. Hepatol (2000) 32:762-770. […]

Cell viability of HSCs = type: cell-based; details: male, Wistar, rat, primary hepatic stellate cells (HSCs), 2 μM NIM811, serum-free conditions
Method: as §1

HSCs [2] = assay: BrdU incorporation (cell proliferation ELISA); type: cell-based, rat
Method: as §1, with “Cell viability of HSCs is more than 90% under serum-free conditions for 24 h in the presence of 2 μM NIM811.” left out
Analysis of BrdU incorporation: HSC incorporation of BrdU is measured using a cell proliferation ELISA (Roche Diagnostics GmbH, Mannheim, Germany) as described in Higashi, et al, J. Lab Clin Med (2005) 145(6):316-322. […] BrdU incorporation is estimated by measuring the […].

cyclophilin A = cyclophilin A (Homo sapiens, UniProt P62937); details: Waldmeier et al, Mol Pharmacol (2002); cited from earlier work
TGFβ Signaling Pathways = assay: Western blot analysis for phospho- and nonphospho-Smad2 and Smad3; type: cell-based, human; details: 0.5 μM
Method: Western blot analysis for phospho- and nonphospho-Smad2 and Smad3: Western blot analysis is performed as described above for MAPK analysis and probed with a primary antibody for Smad2, phospho-Smad2 (Thr/Tyr), Smad3, or phospho-Smad3 (Thr/Tyr) (Cell Signaling Technology, Danvers, Mass.). For comparison, the ratios of phosphorylated Smad2 and Smad3 to nonphosphorylated Smad2 and Smad3, respectively, are calculated from densitometric data.

HCV = details: Watashi et al., Hepatology (2003); cited from earlier work

Sequence of cyclophilin A (P62937 whole entry, species assumed): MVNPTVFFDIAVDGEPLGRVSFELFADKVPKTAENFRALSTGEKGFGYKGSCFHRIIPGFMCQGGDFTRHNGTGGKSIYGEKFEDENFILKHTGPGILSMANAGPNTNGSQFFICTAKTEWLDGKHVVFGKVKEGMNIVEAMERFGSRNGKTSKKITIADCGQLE

## C/C=C/C[C@@H](C)[C@@H](O)[C@H]1C(=O)N[C@@H](CC)C(=O)N(C)CC(=O)N(C)[C@@H]([C@@H](C)CC)C(=O)N[C@@H](C(C)C)C(=O)N(C)[C@@H](CC(C)C)C(=O)N[C@@H](C)C(=O)N[C@H](C)C(=O)N(C)[C@@H](CC(C)C)C(=O)N(C)[C@@H](CC(C)C)C(=O)N(C)[C@@H](C(C)C)C(=O)N1C [NIM811]
HSCs [1]; 0.5 μM
  reduction of collagen accumulation: approximately 50%
HSCs [1]; increasing concentrations, 24 h
  suppression of collagen accumulation: concentration-dependent suppression of collagen accumulation
Cell viability of HSCs
  viability at 24 h, 2 µM: > 90%
HSCs [2]
  cell growth of HSCs: suppresses cell growth of HSCs in a concentration-dependent manner
HSCs [2]; 2.0 μM
  decrease of new DNA synthesis (BrdU incorporation): ~30%
Cyclophilin A
  binding to cyclophilin A: does not bind to cyclophilin A
TGFβ Signaling Pathways
  suppression of phosphorylation of Smad2: ~70%
  suppression of phosphorylation of Smad3: ~60%
HCV
  replication of HCV in vitro: suppresses replication of HCV replication in vitro
